Experimental data as given in publication PMC9828044 (RSC Advances, 2023).

Assays:
MAO B = target: T1, MAO B (Rattus norvegicus, UniProt P19643); test: Monoamine oxidase B; format: biochemical; settings: for inhibition at 100 µM: read-out: MAO B % inhibition; for selective inhibition toward MAO B: MAO B versus MAO A, in words
T1 sequence (P19643 1-520): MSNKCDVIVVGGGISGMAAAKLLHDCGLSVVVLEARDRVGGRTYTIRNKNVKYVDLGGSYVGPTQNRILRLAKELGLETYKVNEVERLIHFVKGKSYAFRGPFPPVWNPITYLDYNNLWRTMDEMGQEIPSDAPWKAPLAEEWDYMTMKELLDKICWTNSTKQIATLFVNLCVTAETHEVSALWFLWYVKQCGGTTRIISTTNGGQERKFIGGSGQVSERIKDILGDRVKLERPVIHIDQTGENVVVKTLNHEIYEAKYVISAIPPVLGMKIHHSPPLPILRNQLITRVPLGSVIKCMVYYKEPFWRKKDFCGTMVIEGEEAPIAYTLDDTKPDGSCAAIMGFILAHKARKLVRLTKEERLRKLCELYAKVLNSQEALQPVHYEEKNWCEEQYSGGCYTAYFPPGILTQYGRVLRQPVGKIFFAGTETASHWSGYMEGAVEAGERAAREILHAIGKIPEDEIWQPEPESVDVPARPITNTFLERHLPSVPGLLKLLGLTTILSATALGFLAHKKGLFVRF

MAO A = target: T2, MAO A (Rattus norvegicus, UniProt P21396); test: Monoamine oxidase A; format: biochemical; settings: for inhibition at 100 µM: read-out: MAO A % inhibition; for dual inhibition on MAO A and MAO B: both isoforms; for dual inhibition on MAO A and MAO B / selective inhibition toward MAO A: in words; for selective inhibition toward MAO A: MAO A versus MAO B
T2 sequence (P21396 1-526): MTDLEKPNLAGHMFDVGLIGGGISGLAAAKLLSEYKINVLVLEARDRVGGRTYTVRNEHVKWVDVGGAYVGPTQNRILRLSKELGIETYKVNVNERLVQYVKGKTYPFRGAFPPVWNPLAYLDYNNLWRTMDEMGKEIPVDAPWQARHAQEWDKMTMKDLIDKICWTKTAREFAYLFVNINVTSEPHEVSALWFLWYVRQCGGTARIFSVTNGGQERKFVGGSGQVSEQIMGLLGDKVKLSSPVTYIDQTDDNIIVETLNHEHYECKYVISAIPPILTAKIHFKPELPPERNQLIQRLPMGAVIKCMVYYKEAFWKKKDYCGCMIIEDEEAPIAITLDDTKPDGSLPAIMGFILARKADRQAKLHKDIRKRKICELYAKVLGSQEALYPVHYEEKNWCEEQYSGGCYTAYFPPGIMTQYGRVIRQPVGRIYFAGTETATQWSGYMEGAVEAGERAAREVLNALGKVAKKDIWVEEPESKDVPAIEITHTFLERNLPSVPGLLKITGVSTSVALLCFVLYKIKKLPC

SMILES | inhibition at 100 µM (MAO A) [%] | dual inhibition on MAO A and MAO B (MAO A) | further results
CN1c2ccccc2C(=NN=Cc2cc3ccccc3nc2Cl)CS1(=O)=O [7a, 4-(((2-Chloroquinolin-3-yl)methylene)hydrazono)-1-methyl-3,4-dihydro-1H-benzo[c][1,2]thiazine 2,2-dioxide] | 38.8 | – | inhibition at 100 µM (MAO B): 43.6%
Cc1ccc2nc(Cl)c(C=NN=C3CS(=O)(=O)N(C)c4ccccc43)cc2c1 [7b, 4-(((2-Chloro-6-methylquinolin-3-yl)methylene)hydrazono)-1-methyl-3,4-dihydro-1H-benzo[c][1,2]thiazine 2,2-dioxide] | – | dual inhibition on MAO A as well as MAO B | –
COc1ccc2nc(Cl)c(C=NN=C3CS(=O)(=O)N(C)c4ccccc43)cc2c1 [7c, 4-(((2-Chloro-6-methoxyquinolin-3-yl)methylene)hydrazono)-1-methyl-3,4-dihydro-1H-benzo[c][1,2]thiazine 2,2-dioxide] | – | – | inhibition at 100 µM (MAO B): 35.8%; selective inhibition toward MAO A (MAO A): significant selective inhibition toward MAO A
Cc1ccc2cc(C=NN=C3CS(=O)(=O)N(C)c4ccccc43)c(Cl)nc2c1 [7d, 4-(((2-Chloro-7-methylquinolin-3-yl)methylene)hydrazono)-1-methyl-3,4-dihydro-1H-benzo[c][1,2]thiazine 2,2-dioxide] | – | dual inhibition on MAO A as well as MAO B | –
COc1ccc2cc(C=NN=C3CS(=O)(=O)N(C)c4ccccc43)c(Cl)nc2c1 [7e, 4-(((2-Chloro-7-methoxyquinolin-3-yl)methylene)hydrazono)-1-methyl-3,4-dihydro-1H-benzo[c][1,2]thiazine 2,2-dioxide] | – | dual inhibition on MAO A as well as MAO B | –
CN1c2ccccc2C(=NN=Cc2cc3ccc(Cl)cc3nc2Cl)CS1(=O)=O [7f, 4-(((2,7-Dichloroquinolin-3-yl)methylene)hydrazono)-1-methyl-3,4-dihydro-1H-benzo[c][1,2]thiazine 2,2-dioxide] | 2.03 ± 0.91 | dual inhibition on MAO A as well as MAO B | –
CC(=NN=C1CS(=O)(=O)N(C)c2ccccc21)c1cccs1 [9a, 1-Methyl-4-((1-(thiophen-2-yl)ethylidene)hydrazono)-3,4-dihydro-1H-benzo[c][1,2]thiazine 2,2-dioxide] | 2.09 ± 0.89 | – | –
CC(=NN=C1CS(=O)(=O)N(C)c2ccccc21)c1sccc1C [9b, 1-Methyl-4-((1-(3-methylthiophen-2-yl)ethylidene)hydrazono)-3,4-dihydro-1H-benzo[c][1,2]thiazine 2,2-dioxide] | 38.5 | – | –
CC(=NN=C1CS(=O)(=O)N(C)c2ccccc21)c1cc(C)cs1 [9c, 1-Methyl-4-((1-(4-methylthiophen-2-yl)ethylidene)hydrazono)-3,4-dihydro-1H-benzo[c][1,2]thiazine 2,2-dioxide] | 39.1 | – | –
CC(=NN=C1CS(=O)(=O)N(C)c2ccccc21)c1ccc(C)s1 [9d, 1-Methyl-4-((1-(5-methylthiophen-2-yl)ethylidene)hydrazono)-3,4-dihydro-1H-benzo[c][1,2]thiazine 2,2-dioxide] | – | – | inhibition at 100 µM (MAO B): 31.1%; selective inhibition toward MAO A (MAO A): significant selective inhibition toward MAO A
CC(=NN=C1CS(=O)(=O)N(C)c2ccccc21)c1sccc1Cl [9e, 4-((1-(3-Chlorothiophen-2-yl)ethylidene)hydrazono)-1-methyl-3,4-dihydro-1H-benzo[c][1,2]thiazine 2,2-dioxide] | – | – | inhibition at 100 µM (MAO B): 41.9%
CC(=NN=C1CS(=O)(=O)N(C)c2ccccc21)c1sccc1Br [9f, 4-((1-(3-Bromothiophen-2-yl)ethylidene)hydrazono)-1-methyl-3,4-dihydro-1H-benzo[c][1,2]thiazine 2,2-dioxide] | 41.6 | – | selective inhibition toward MAO B (MAO B): selective inhibition toward the MAO B enzyme
CC(=NN=C1CS(=O)(=O)N(C)c2ccccc21)c1ccc(Cl)s1 [9g, 4-((1-(5-Chlorothiophen-2-yl)ethylidene)hydrazono)-1-methyl-3,4-dihydro-1H-benzo[c][1,2]thiazine 2,2-dioxide] | – | dual inhibition on MAO A as well as MAO B | –
CC(=NN=C1CS(=O)(=O)N(C)c2ccccc21)c1ccc(Br)s1 [9h, 4-((1-(5-Bromothiophen-2-yl)ethylidene)hydrazono)-1-methyl-3,4-dihydro-1H-benzo[c][1,2]thiazine 2,2-dioxide] | 28.4 | – | selective inhibition toward MAO B (MAO B): selective inhibition toward the MAO B enzyme
CC(=NN=C1CS(=O)(=O)N(C)c2ccccc21)c1ccc([N+](=O)[O-])s1 [9i, 1-Methyl-4-((1-(5-nitrothiophen-2-yl)ethylidene)hydrazono)-3,4-dihydro-1H-benzo[c][1,2]thiazine 2,2-dioxide] | 39.8 | – | selective inhibition toward MAO B (MAO B): selective inhibition toward the MAO B enzyme
CC(=NN=C1CS(=O)(=O)N(C)c2ccccc21)c1cc(C)sc1C [9j, 4-((1-(2,5-Dimethylthiophen-3-yl)ethylidene)hydrazono)-1-methyl-3,4-dihydro-1H-benzo[c][1,2]thiazine 2,2-dioxide] | 26.3 | – | selective inhibition toward MAO B (MAO B): selective inhibition toward the MAO B enzyme
CC(=NN=C1CS(=O)(=O)N(C)c2ccccc21)c1cc(Cl)sc1Cl [9k, 4-((1-(2,5-Dichlorothiophen-3-yl)ethylidene)hydrazono)-1-methyl-3,4-dihydro-1H-benzo[c][1,2]thiazine 2,2-dioxide] | – | dual inhibition on MAO A as well as MAO B | –
